Data as given in patent US20070254907A1, “COMPOSITIONS AND METHODS FOR CONTROLLING INFESTATION” (HATCHTECH PTY LTD, priority 2003, published 2007).
“And” between values parts separate entries of the source, which are not always exact repeats. Equal values may be shown once. Square brackets hold non-standard residues; d marks the D form. Peptide text beside a SMILES is read from it. * marks the point of attachment. Sta = CC(C)C[C@H](N)[C@@H](O)CC(=O)O; Isovaleryl = CC(C)CC(=O)*

Tests used:
[1] = test system: proteases in egg shell washings (ESW) of lice eggs; assay: Gelatin substrate SDS-PAGE of lice egg shell washings (ESW) incubated with protease inhibitors; type: biochemical, Pediculus humanus humanus; details: gel strips incubated with inhibitor: PMSF 5 mM, 1,10-phenanthroline 10 mM, EDTA 10 mM, pepstatin 5 μM, E-64 10 μM
Method: Within 12 hours of hatching 50 body lice eggs (Pediculus humanus humanus) were removed from the hair and placed in a 1 mL eppendorf tube. 20 μL of distilled water was added to the unhatched eggs and the preparation incubated for 30 minutes at 32° C. The 20 μL was recovered, freeze dried and stored at −70° C. This sample was referred to as sample 1. A number of other samples were also collected as described. Sample 2 was collected by removing the unhatched louse eggs from four hairs that were approximately 3 cm long, cutting the hair into 0.5 cm lengths, and placing them into a microfuge tube containing 20 μl of distilled water and incubating at 32° C. for 30 minutes. Sample 3 was collected as for sample 2, but the hair was placed in a tube containing 10 mL of 1% sodium hypochlorite for 1 minute followed by five 1 minute washes in 25 mL of distilled water to remove the sodium hypochlorite before being incubated in a microfuge tube containing 20 μl of distilled water and incubated as for Sample 2. Sample 4 was collected from unhatched eggs which were removed from the hair and washed with 1% sodium hypochlorite and incubated in 20 μl of distilled water in the same manner as the hair in Sample 3. Finally, Sample 5 was collected from eggs that were within 24 hrs of hatching which were washed with 1% sodium hypochlorite, then returned to the incubator at 32° C. until they hatched, the empty egg shells collected 0-2 hrs after egg-hatching, placed in a 1 mL microfuge tube containing 20 μl of distilled water and incubated as for Samples 1-4. For all samples 1-5 the 20 μl of fluid was recovered, freeze-dried and stored at −70° C. The washings recovered from these freshly hatched egg shells are referred to as egg-shell-washings (ESWs). In order to look for the presence of proteases present in these different samples, the freeze-dried samples were resuspended in 15 μL of non-reducing SDS sample buffer, centrifuged at 10,000 g for 2 minutes and the entire 15 μL loaded on to 10% gelatine substrate SDS-PAGE gels. Gels were run at 4° C. for 10 minutes at 10 mA followed by a further 25 minutes at 15 mA per gel. They were then incubated for 2×20 minutes in a 2.5% Triton-X 100 solution followed by a three hour incubation in 0.1M Tris/HCl containing 1 mM CaCl2 pH 8.0. Activity was detected as clear areas on the gel the result of protease activity degrading the gelatine within the gel.
Protease activity in the ESWs from louse eggs was also examined using two-dimensional gel electrophoresis. It was necessary to collect large numbers of freshly hatched egg shells. Following egglaying onto pieces of cloth, adult female lice were removed and the cloth with the eggs washed with 1% sodium hypochlorite as for collection of ESWs. The eggs were then returned to the incubator and permitted to hatch. Typically 100 to 500 hatched egg shells were collected (0-2 hours post hatching), placed in a microfuge tube containing 200 μl of distilled water, incubated and sample treated as described above. For analysis, ESWs were resuspended in rehydration buffer (8 M Urea, 2% 3-[(3-cholamidopropyl) dimethylammonio]-1-propanesulfonate 2% Immobilised pH gradient buffer 3-10 (Amersham Phamacia Biotech, Uppsala, Sweden)) and used to rehydrate 7 cm Immobiline Dry strips pH 3-10 (Amersham Bioscience) overnight. Strips were transferred to the Multiphor II (Pharmacia, Sweden) apparatus, electrophoresed in the first dimension at 200 V for 1 min, increasing to 3,500 V over the next 90 min followed by 65 min at 3,500 V, equilibrated (6 M urea, 30% glycerol, 50 mM Tris pH 8.8 and 2% SDS) and then run on a 10% SDS-PAGE gel containing 0.1% gelatin for the second dimension. The gel was then run and developed as previously described.
10% SDS-PAGE gelatine substrate gels were loaded with freeze dried egg shell washings from 100 lice eggs that had been resuspended in 50 μL of non-reducing sample buffer with samples run at 10 μL per lane. […]

[2] = test system: Lice (L) and Plutella (P) eggs; assay: whole plant or invertebrate; details: read-out: Ovicidal activity %
[3] = test system: Helicoverpa armigera eggs; assay: Egg hatching of Helicoverpa armigera; details: 1% diethoxyglycol in water (FIG. 6)
Method: A range of concentrations were made up in water and the eggs placed in the solutions for approximately 2-10 seconds. The eggs which had been laid on cloth were then blotted dry and placed in an incubator at 26° C. for 3-4 days until hatch. Hatch rates were then assessed compared to a water only treated control (FIG. 5).
The compound was dissolved in 100% diethoxyglycol and diluted to a final concentration of 1% in water.
Several hundred Helicoverpa armigera eggs (Tatura×Toowoomba strains) were collected, that had been laid on fine mesh cloth over a 24 hour period.
Batches of Helicoverpa eggs were exposed to a specific inhibitor solution for between 2-10 seconds the excess solution drained by blotting with dry tissue paper. The egg masses were then placed in a humid box at 25 degrees until egg hatch. Control eggs were exposed to absolute methanol as described above. At day 6 post laying the eggs were assessed from the different treatments and the percentage of egg hatch determined relative to the control as shown in Table 12.
Batches of Helicoverpa eggs were then exposed to a specific inhibitor solution for between 2-10 seconds the excess solution drained by blotting with dry tissue paper. The egg masses were then placed in a humid box at 25° C. until egg hatch. Control eggs were exposed to absolute methanol as described above. At day 6 post laying the eggs were assessed from the different treatments and the percentage of egg hatch determined relative to the control as shown in Table 13.

H. contortus eggs = assay: Egg hatching in Haemonchus contortus; type: in vivo
Method: In an attempt to improve control of H. contortus the effects of the compound 5,5′-dimethyl-2,2′-dipyridyl was examined on H. contortus eggs. Eggs were recovered from the faeces of infected sheep using a standard sucrose floatation method. The eggs were corrected to a density of approximately 2,500 eggs per mL and were then exposed to varying concentrations of compound and incubated for 48 hours at 25° C. The eggs were then examined to determine the ovicidal efficacy of the compound in comparison to untreated control and a solvent only control.
In addition, the ovicidal efficacy of the compound 2-acetyl-1-tetralone was examined against H. contortus (FIG. 10). The same protocol was used as described for 5,5′-dimethyl-2,2′-dipyridyl.

Plutella xylostella eggs [4] = assay: whole plant or invertebrate; type: in vivo; details: for ovicidal efficacy against Plutella: 1% diethoxyglycol (FIG. 7); for inhibition of Plutella egg hatching: 1% diethoxyglycol; for Number hatched / Number unhatched: Table 17, eggs laid on cloth; for % Inhibition: Table 17, relative to control (1% diethoxyglycol)
Method: The ovicidal efficacy of 2-acetyl-1-tetralone was also tested against Plutella eggs.

Plutella xylostella eggs [5] = assay: Glass house ovicidal test on sprayed cabbage plants; type: in vivo; details: 10 eggs per cabbage plant, one value per plant
Text: A number of treatments and replicates were set up in the glass house using young cabbage plants that were at the 4-5 leaf stage. Plutella xylostella eggs were laid by gravid females on the leaves such that each plant contained 10 eggs. The plants were sprayed with a commercial ovicide or using the compounds 5,5′-dimethyl-2,2′-dipyridyl and 5,5′diethyl-2,2′-dipyridyl in a formulation at the rate of 200 L/Ha using a track sprayer. Controls of water only or Placebo only were also included. The ovicidal efficacy was monitored over a number of days an the number of eggs hatching and caterpillar larvae emerging recorded (Table 22).

[6] = test system: Lice (L) and Plutella (P) eggs
lice eggs = assay: whole plant or invertebrate; type: in vivo; details: for H (number of eggs successfully hatched) / Ph (number of eggs partly hatched): per replicate, concentration not given
[7] = 0-24 h, 10 mM (200 L/Ha), with wetting agent 0.3 ml/L

For `O=S(=O)(F)Cc1ccccc1` [PMSF], the “protease activity of ESW on gelatin SDS-PAGE compared to untreated controls” value [1] was “no apparent reduction in protease activity”.
With `O=C(O)CN(CCN(CC(=O)O)CC(=O)O)CC(=O)O` [EDTA, ethylenediamine tetraacetic acid] the “protease activity of ESW on gelatin SDS-PAGE compared to untreated controls” value [1] was “reduction in protease activity”.
Compound `O=C(CC(=O)C(F)(F)F)c1ccccc1` [4,4,4-Trifluoro-1-phenyl-butane-1,3-dione] has an inhibition at 10000 µM [2] of 0%.
`CC(C)CC(=O)N[C@H](C(=O)N[C@H](C(=O)N[C@@H](CC(C)C)[C@@H](O)CC(=O)N[C@@H](C)C(=O)N[C@@H](CC(C)C)[C@@H](O)CC(=O)O)C(C)C)C(C)C` [pepstatin] (Isovaleryl-VV[Sta]A[Sta]-OH) was tested, and the “protease activity of ESW on gelatin SDS-PAGE compared to untreated controls” value [1] was “no apparent reduction in protease activity”.
`CC(=O)C1CCc2ccccc2C1=O` (stereo not shown) [2-acetyl-1-tetralone] was tested, and the “ovicidal efficacy against H. armigera eggs” value ([3]; 1 mM) was “efficacy declining”, the “ovicidal efficacy against H. armigera eggs” value ([3]; 2 mM) was “strong ovicidal efficacy” and the “inhibition of H. contortus egg hatch” value (H. contortus eggs; 22 ug/mL (0.1 mM) (FIG. 10)) was “Partial inhibition of egg hatching”. The “inhibition of H. contortus egg hatch” value (H. contortus eggs; 220 ug/mL (1 mM) and 110 ug/mL (0.5 mM) (FIG. 10)) was “highly effective at inhibiting egg hatch”, the “ovicidal efficacy against Plutella” value (Plutella xylostella eggs [4]; 0.5 mM) was “no inhibition observed” and the “ovicidal efficacy against Plutella” value (Plutella xylostella eggs [4]; 2 and 1 mM) was “strong ovicidal efficacy”. For the same compound, the inhibition at 1000 µM (Plutella xylostella eggs [4]; Plutella xylostella, Plutella (P), 1 mM, read-out: Ovicidal activity %) was 100% and the inhibition at 10000 µM (Plutella xylostella eggs [4]; Plutella xylostella, Plutella (P), 10 mM, read-out: Ovicidal activity %) was 100%.
`c1ccc2nc(-c3ccc4ccccc4n3)ccc2c1` [2,2′-biquinoline] showed an inhibition at 10000 µM [2] of 0%.
For `CC(C)C[C@H](NC(=O)[C@H]1O[C@@H]1C(=O)O)C(=O)NCCCCN=C(N)N` [E-64], the “protease activity of ESW on gelatin SDS-PAGE compared to untreated controls” value [1] was “no apparent reduction in protease activity”.
With `c1ccc(Cc2ccccn2)cc1` [2-benzyl-pyridine] the inhibition at 10000 µM [2] was 0%.
With `Cc1ccc(-c2ccc(C)cn2)nc1` [5,5′dimethyl-2,2′-dipyridyl] the “# LARVAE EMERGED” value (Plutella xylostella eggs [5]; [7]) was 0, the “# LARVAE EMERGED” value (Plutella xylostella eggs [5]; 0-24 h, 20 mM (200 L/Ha), with wetting agent 0.3 ml/L) was 0 and the “# LARVAE EMERGED” value (Plutella xylostella eggs [5]; 24-48 h, 10 mM (200 L/Ha), with wetting agent 0.3 ml/L) was 0. The “# LARVAE EMERGED” value (Plutella xylostella eggs [5]; 24-48 h, 20 mM (200 L/Ha), with wetting agent 0.3 ml/L) was 0 and the “# LARVAE EMERGED” value (Plutella xylostella eggs [5]; 48-72 h, 20 mM (200 L/Ha), with wetting agent 0.3 ml/L) was 0.
For `CCc1ccc(-c2ccc(CC)cn2)nc1` [5,5′-diethyl-2,2′-dipyridyl], the “# LARVAE EMERGED” value (Plutella xylostella eggs [5]; 0-24 h, 10 mM (200 L/Ha) No Wetting Agent) was 0, the “# LARVAE EMERGED” value (Plutella xylostella eggs [5]; [7]) was 0 and the “inhibition of Plutella egg hatching” value (Plutella xylostella eggs [4]; 0.1 mM) was “Partial inhibition of egg hatching”. The “inhibition of Plutella egg hatching” value (Plutella xylostella eggs [4]; 1 mM) was “complete inhibition”, the Number hatched (Plutella xylostella eggs [4]; 0.1 mM in 1% diethoxyglycol) was 22 and the Number unhatched (Plutella xylostella eggs [4]; 0.1 mM in 1% diethoxyglycol) was 34. For the same compound, the Number hatched (Plutella xylostella eggs [4]; 1 mM in 1% diethoxyglycol) was 0, the Number unhatched (Plutella xylostella eggs [4]; 1 mM in 1% diethoxyglycol) was 34 and the “% Inhibition” value (Plutella xylostella eggs [4]; 0.1 mM) was 31%. For the same compound, the “% Inhibition” value (Plutella xylostella eggs [4]; 1 mM) was 100%.
With `O=C(CC(=O)c1cc(Cl)ccc1O)c1ccccc1` [1-(5-Chloro-2-hydroxy-phenyl)-3-phenyl-propane-1,3-dione] the inhibition at 10000 µM [2] was 0%.
`COc1ccc(C(=O)CC(=O)c2ccc(C(C)(C)C)cc2)cc1` [1-(4-tert-butylphenyl)-3-(4-methoxyphenyl)-propane-1,3-dione] was tested, and the “Logit calc pLD50” value ([6]; in vivo) was 0.7, the “Pref pLD50” value ([6]; in vivo) was under 2 and the inhibition at 10000 µM [2] was 0%.
For `c1ccc(-c2ccccn2)nc1` [2,2′-dipyridyl], the Ovicidal activity % ([6]; Lice (L) and Plutella (P), 10 mM) was 100.00%, the “Activity class 0 = inactive 1 = low 2 = med 3 = high” value ([6]; Lice (L) and Plutella (P), listed as of 10 mM) was 1 (a pLD50 value between 2 and 3 is considered weakly active (Class 1)) and the “lice egg hatching” value (lice eggs; all time points examined (24-120 hr post egg laying)) was “completely inhibited”. The “H (number of eggs successfully hatched)” value (lice eggs; treated 24 hr post egg laying) was 0, the “Ph (number of eggs partly hatched)” value (lice eggs; treated 24 hr post egg laying) was 0 and the “H (number of eggs successfully hatched)” value (lice eggs; treated 48 hr post egg laying) was 0. The “Ph (number of eggs partly hatched)” value (lice eggs; treated 48 hr post egg laying) was 0, the “H (number of eggs successfully hatched)” value (lice eggs; treated 72 hr post egg laying) was 0 and the “Ph (number of eggs partly hatched)” value (lice eggs; treated 72 hr post egg laying) was 0. The “H (number of eggs successfully hatched)” value (lice eggs; treated 96 hr post egg laying) was 1 and 0 (2×), the “Ph (number of eggs partly hatched)” value (lice eggs; treated 96 hr post egg laying) was 0 and the “H (number of eggs successfully hatched)” value (lice eggs; treated 120 hr post egg laying) was 0. For the same compound, the “Ph (number of eggs partly hatched)” value (lice eggs; treated 120 hr post egg laying) was 0.
With `c1cnc2ccc3ncccc3c2c1` [4,7-phenanthroline] the inhibition at 10000 µM [2] was 0%.
With `c1ccc(-c2cc(N3CCOCC3)c3ccccc3n2)nc1` [4-Morpholin-4-yl-2-pyridin-2-yl-quinoline] the inhibition at 10000 µM [2] was 0%.
